How the values were obtained:
[1] = system: KRAS G12V; assay: G12V_cell (cellular assay on KRAS G12V cells, method not named in Table 1); assay type: cell-based; settings: cell line and readout not stated
Method: MIA PaCa-2 (KRAS G12C; ATCC® CRL-1420), NCI-H358 (KRAS G12C; ATCC® CRL-5807), A427 (KRAS G12D; ATCC® HTB53), HPAFII (KRAS G12D; ATCC® CRL-1997), YAPC (KRAS G12V; DSMZ ACC382), SW480 (KRAS G12V; ATCC® CRL-228) and NCI-H838 (KRAS WT; ATCC® CRL-5844) cells are cultured in RPMI 1640 media supplemented with 10% FBS (Gibco/Life Technologies). Eight hundred cells per well in RPMI 1640 media supplemented with 2% FBS are seeded into white, clear bottomed 384-well Costar tissue culture plates containing 50 nL dots of test compounds (final concentration is a 1:500 dilution, with a final concentration in 0.2% DMSO). Plates are incubated for 3 days at […], 5% CO2. At the end of the assay, 25 ul/well of CellTiter-Glo reagent (Promega) is added. Luminescence is read after 15 min. with a PHERAstar (BMG). Data are analyzed in Genedata Screener using SmartFit for IC50 values.
MIA PaCa-2 (KRAS G12C; ATCC® CRL-1420), NCI-H358 (KRAS G12C; ATCC® CRL-5807), A427 (KRAS G12D; ATCC® HTB53), HPAFII (KRAS G12D; ATCC® CRL-1997), YAPC (KRAS G12V; DSMZ ACC382), SW480 (KRAS G12V; ATCC® CRL-228) and NCI-H838 (KRAS WT; ATCC® CRL-5844) cells are purchased from ATCC and maintained in RPMI 1640 media supplemented with 10% FBS (Gibco/Life Technologies). The cells are plated at 5000 cells per well (8 uL) into Greiner 384-well low volume, flat-bottom, and tissue culture treated white plates and incubated overnight at […], 5% CO2. The next morning, test compound stock solutions are diluted in media at 3× the final concentration and 4 uL are added to the cells, with a final concentration of 0.1% of DMSO. The cells are incubated with the test compounds for 4 h (G12C and G12V) or 2 hrs (G12D) at 37° C., 5% CO2. Four uL of 4× lysis buffer with blocking reagent (Cisbio) are added to each well and plates are rotated gently (300 rpm) for 30 min. at r.t. Four uL per well of Cisbio anti Phospho-ERK ½ d2 is mixed with anti Phospho-ERK ½ Cryptate (1:1), and added to each well, incubated overnight in the dark at r.t. Plates are read on the Pherastar plate reader at 665 nm and 620 nm wavelengths. Data are analyzed in Genedata Screener using SmartFit for IC50 values.

[2] = target: KRAS G12D (Homo sapiens, UniProt P01116, G12D); assay: GDP-GTP exchange assay (bodipy-GDP for GppNHp, with SOS1), KRAS G12D; assay type: biochemical; settings: bodipy-loaded KRAS G12D 2.5 nM, 4 h pre-incubation, 2 h after GppNHp/SOS1; read-out: G12D_exchange
Method: (§1) The inhibitor potency of the exemplified compounds was determined in a fluorescence based guanine nucleotide exchange assay, which measures the exchange of bodipy-GDP (fluorescently labeled GDP) for GppNHp (Non-hydrolyzable GTP analog) to generate the active state of KRAS in the presence of SOS1 (guanine nucleotide exchange factor). Inhibitors were serially diluted in DMSO and a volume of 0.1 μL was transferred to the wells of a black low volume 384-well plate. 5 μL/well volume of bodipy-loaded KRAS G12D diluted to 2.5 nM in assay buffer (25 mM Hepes pH 7.5, 50 mM NaCl, 10 mM MgCl2 and 0.01% Brij-35) was added to the plate and pre-incubated with inhibitor for 4 h at ambient temperature. Appropriate controls (enzyme with no inhibitor or with a G12D inhibitor) were included on the plate. The exchange was initiated by the addition of a 5 μL/well volume containing 1 mM GppNHp and 300 nM SOS1 in assay buffer. The 10 μL/well reaction concentration of the bodipy-loaded KRAS G12D, GppNHp, and SOS1 were 2.5 nM, 500 uM, and 150 nM, respectively. The reaction plates were incubated at ambient temperature for 2 h, a time estimated for complete GDP-GTP exchange in the absence of inhibitor. For the KRAS G12V mutant, similar guanine nucleotide exchange assays were used with 2.5 nM as final concentration for the bodipy loaded KRAS proteins and 3 h incubation after adding GppNHp-SOS1 mixture. A cyclic peptide described to selectively bind G12D mutant (Sakamoto et al., BBRC 484.3 (2017), 605-611) or internal compounds with confirmed binding were used as positive controls in the assay plates. Fluorescence intensities were measured on a PheraStar plate reader instrument (BMG Labtech) with excitation at 485 nm and emission at 520 nm.
(§2) Either GraphPad prism or Genedata Screener SmartFit was used to analyze the data. The IC50 values were derived by fitting the data to a four parameter logistic equation producing a sigmoidal dose-response curve with a variable Hill coefficient.
(§3) The symbol “†” indicates IC50≤100 nM, “††” indicates IC50>100 nM but ≤1 μM; and “†††” indicates IC50 is >1 μM but ≤5 μM, “††††” indicates IC50 is >5 μM but ≤10 μM. “NA” indicates IC50 not available.

[3] = target: KRAS G12V mutant (Homo sapiens, UniProt P01116, G12V); assay: GDP-GTP exchange assay (bodipy-GDP for GppNHp, with SOS1), KRAS G12V; assay type: biochemical; settings: bodipy-loaded KRAS G12V 2.5 nM, 3 h incubation after GppNHp-SOS1; read-out: G12V_ exchange
Method: as §1, §2, §3

Measured: IC50

KRAS G12D, sequence (P01116 1-188 isoform P01116-2 G12D): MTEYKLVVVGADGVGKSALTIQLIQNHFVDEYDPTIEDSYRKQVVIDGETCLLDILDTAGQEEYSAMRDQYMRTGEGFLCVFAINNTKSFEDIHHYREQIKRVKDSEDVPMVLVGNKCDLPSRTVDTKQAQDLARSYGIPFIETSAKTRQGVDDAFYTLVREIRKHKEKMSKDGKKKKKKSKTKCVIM
KRAS G12V mutant, sequence (P01116 1-188 isoform P01116-2 G12V): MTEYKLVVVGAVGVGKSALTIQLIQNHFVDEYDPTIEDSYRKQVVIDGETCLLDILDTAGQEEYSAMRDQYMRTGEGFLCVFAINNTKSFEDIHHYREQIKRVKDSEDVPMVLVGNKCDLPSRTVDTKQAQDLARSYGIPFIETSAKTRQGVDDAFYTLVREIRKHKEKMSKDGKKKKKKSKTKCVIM

C[C@H](Oc1nc2c(F)c(-c3cccc(Cl)c3Cl)c(CCC#N)cc2c2c1cc([C@H]1C[C@H](F)CN1C(=O)C1CC1)n2[C@H]1[C@H]2CN[C@@H]1C2)[C@@H]1CCCN1C [Example 10, 3-(1-((1R,4R,5S)-2-Azabicyclo[2.1.1]hexan-5-yl)-2-((2R,4S)-1-(cyclopropanecarbonyl)-4-fluoropyrrolidin-2-yl)-7-(2,3-dichlorophenyl)-6-fluoro-4-((S)-1-((S)-1-methylpyrrolidin-2-yl)ethoxy)-1H-pyrrolo[3,2-c]quinolin-8-yl)propanenitrile]
≤ 100 nM: all assays above
